Experimental data as given in patent US12084472B2 (Ardelyx, Inc., priority 2015, dated 2024).

Biological target: T1, human TGR5 (Homo sapiens, UniProt Q8TDU6)
T1 construct: expressed in transfected cells; host or cells: HEK293
T1 sequence (Q8TDU6 1-330): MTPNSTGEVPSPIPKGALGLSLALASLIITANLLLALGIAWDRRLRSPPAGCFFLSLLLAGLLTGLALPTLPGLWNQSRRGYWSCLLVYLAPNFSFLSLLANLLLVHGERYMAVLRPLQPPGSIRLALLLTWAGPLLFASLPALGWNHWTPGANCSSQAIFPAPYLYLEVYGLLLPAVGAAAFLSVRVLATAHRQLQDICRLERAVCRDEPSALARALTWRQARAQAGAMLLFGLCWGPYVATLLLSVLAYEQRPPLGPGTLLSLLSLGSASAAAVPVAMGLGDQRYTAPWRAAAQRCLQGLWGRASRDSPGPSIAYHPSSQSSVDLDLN
Assay: Cell-based TGR5 assay (cAMP generation, HTRF)
Details: HEK293 cells stably transfected with human TGR5; cAMP by HTRF; 30 minutes at 37° C.; read-out: pEC50 Human TGR5 (converted)
Procedure, shortened: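 First, compounds in 3-fold serial dilution were placed in HBSS with 10 mM HEPES pH 7.4 and 0.5 mM IBMX. Next, human TGR5-expressing HEK293 cells were added and incubated 30 min at 37° C. Finally, cAMP was detected by HTRF and pEC50 derived by logistic fitting.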

`FC(F)(F)c1ccc(Cl)cc1COC1(c2cnccc2-c2ccccc2OC2CC2)CC1` [Compound I-51, 3-(1-{[5-chloro-2-(trifluoromethyl)phenyl]methoxy}cyclopropyl)-4-(2-cyclopropoxyphenyl) pyridine] and `Clc1ccc(Cl)c(COC2(c3cnccc3-c3ccccc3OC3CC3)CCCC2)c1` [Compound I-742, 4-(2-cyclopropoxyphenyl)-3-(1-((2,5-dichlorobenzyl)oxy)cyclopentyl)pyridine] fall in the same range of EC50: 126 to 1000 nM for the first, 126 to 1000 nM for the second.

`COCCCN(CCCC(C)c1ccc(C)c(CNC2(c3cnccc3-c3ccccc3OC3CC3)CC2)c1)C(=O)[C@@H](O)[C@@H](O)[C@H](O)[C@@H](O)CO` (stereo partly drawn) [Compound I-303, (2S,3S,4R,5S)-N-(4-{3-[({1-[4-(2-cyclopropoxyphenyl)pyridin-3-yl]cyclopropyl}amino)methyl]-4-methylphenyl}pentyl)-2,3,4,5,6-pentahydroxy-N-(3-methoxypropyl)hexanamide] and `CC(CCCN(CCCCO)C(=O)[C@@H](O)[C@@H](O)[C@H](O)[C@@H](O)CO)c1ccc(Cl)c(CNC2(c3cnccc3-c3ccccc3OC3CC3)CC2)c1` (stereo partly drawn) [Compound I-283, (2S,3S,4R,5S)-N-(4-{4-chloro-3-[({1-[4-(2-cyclopropoxyphenyl)pyridin-3-yl]cyclopropyl}amino)methyl]phenyl}pentyl)-2,3,4,5,6-pentahydroxy-N-(4-hydroxybutyl)hexanamide] cannot be ordered by EC50: under 100 nM for the first, under 100 nM for the second.

`CCN(CCCCNC(=O)N[C@@H](CO)[C@@H](O)[C@H](O)[C@H](O)CO)S(=O)(=O)c1ccc(Cl)c(COC2(c3cnccc3-c3ccccc3OC3CC3)CC2)c1` [Compound I-465, 1-{4-[N-ethyl4-chloro-3-({1-[4-(2-cyclopropoxyphenyl)pyridin-3-yl]cyclopropoxy}methyl)benzenesulfonamido]butyl}-3-[(2S,3R,4S,5R)-1,3,4,5,6-pentahydroxyhexan-2-yl]urea] and `COCCN(CCCCCNC(=O)N[C@@H](CO)[C@@H](O)[C@H](O)[C@H](O)CO)S(=O)(=O)c1ccc(Cl)c(COC2(c3cnccc3-c3ccccc3OC3CC3)CC2)c1` [Compound I-413, 1-{5-[N-(2-methoxyethyl)4-chloro-3-({1-[4-(2-cyclopropoxyphenyl)pyridin-3-yl]cyclopropoxy}methyl)benzenesulfonamido]pentyl}-3-[(2S,3R,4S,5R)-1,3,4,5,6-pentahydroxyhexan-2-yl]urea] cannot be ordered by EC50: under 100 nM for the first, under 100 nM for the second.

`CCN(CCOCCNC(=O)NC[C@H](O)[C@@H](O)[C@H](O)[C@H](O)CO)S(=O)(=O)c1ccc(Cl)c(COC2(c3cnccc3-c3ccccc3OC3CC3)CC2)c1` [Compound I-411, 1-(2-{2-[N-ethyl4-chloro-3-({1-[4-(2-cyclopropoxyphenyl)pyridin-3-yl]cyclopropoxy}methyl)benzenesulfonamido]ethoxy}ethyl)-3-[(2S,3R,4R,5R)-2,3,4,5,6-pentahydroxyhexyl]urea] and `CCN(CCCCNC(=O)NC[C@H](O)[C@@H](O)[C@H](O)[C@H](O)CO)S(=O)(=O)c1ccc(Cl)c(CNC2(c3cnccc3-c3ccccc3OC3CC3)CC2)c1` [Compound I-473, 1-(4-{N-ethyl4-chloro-3-[({1-[4-(2-cyclopropoxyphenyl)pyridin-3-yl]cyclopropyl}amino)methyl]benzenesulfonamido}butyl)-3-[(2S,3R,4R,5R)-2,3,4,5,6-pentahydroxyhexyl]urea] cannot be ordered by EC50: under 100 nM for the first, under 100 nM for the second.

`CCOC(=O)NCCN(CCCCSc1ccc(Cl)c(CNC2(c3cnccc3-c3ccccc3OC3CC3)CC2)c1)C(=O)[C@@H](O)[C@@H](O)[C@H](O)[C@@H](O)CO` [Compound I-572, ethyl N-{2-[(2S,3S,4R,5S)-N-[4-({4-chloro-3-[({1-[4-(2-cyclopropoxyphenyl)pyridin-3-yl]cyclopropyl}amino)methyl]phenyl}sulfanyl)butyl]-2,3,4,5,6-pentahydroxyhexanamido]ethyl}carbamate] and `CC(=O)NCCCCN(CCCSc1ccc(Cl)c(COC2(c3cnccc3-c3ccccc3OC3CC3)CC2)c1)C(=O)[C@@H](O)[C@@H](O)[C@H](O)[C@@H](O)CO` [Compound I-579, (2S,3S,4R,5S)-N-(3-{[4-chloro-3-({1-[4-(2-cyclopropoxyphenyl)pyridin-3-yl]cyclopropoxy}methyl)phenyl]sulfanyl}propyl)-N-(4-acetamidobutyl)-2,3,4,5,6-pentahydroxyhexanamide] cannot be ordered by EC50: under 100 nM for the first, under 100 nM for the second.

`O=C(CCCCNS(=O)(=O)c1ccc(Cl)c(COC2(c3cnccc3-c3ccccc3OC3CC3)CC2)c1)NC[C@H](O)[C@@H](O)[C@H](O)[C@H](O)CO` [Compound I-433, 5-[4-chloro-3-({1-[4-(2-cyclopropoxyphenyl)pyridin-3-yl]cyclopropoxy}methyl)benzenesulfonamido]-N-[(2S,3R,4R,5R)-2,3,4,5,6-pentahydroxyhexyl]pentanamide] and `O=C(NCCCCC[S+]([O-])c1ccc(Cl)c(COC2(c3cnccc3-c3ccccc3OC3CC3)CC2)c1)[C@@H](O)[C@@H](O)[C@H](O)[C@@H](O)CO` (stereo partly drawn) [Compound I-607, (2S,3S,4R,5S)-N-{5-[4-chloro-3-({1-[4-(2-cyclopropoxyphenyl)pyridin-3-yl]cyclopropoxy}methyl)benzenesulfinyl]pentyl}-2,3,4,5,6-pentahydroxyhexanamide] cannot be ordered by EC50: under 100 nM for the first, under 100 nM for the second.

Compared with `O[C@@H]1COC[C@H]1Oc1ccccc1-c1ccncc1C1(NCc2cc(Cl)ccc2Cl)CC1` [Compound I-22, (3R,4R)-4-{2-[3-(1-{[(2,5-dichlorophenyl)methyl]amino}cyclopropyl)pyridin-4-yl]phenoxy}oxolan-3-ol], `Cc1ccc(C(C)CCCC(=O)O)cc1CNC1(c2cnccc2-c2ccccc2OC2CC2)CC1` (single isomer, unassigned) [Compound I-253] is lower in EC50: 1260 to 10000 nM for the first, under 100 nM for the second.

`O=C(NC[C@H](O)[C@@H](O)[C@H](O)[C@H](O)CO)c1ccc(CCc2ccc(Cl)c(COC3(c4cnccc4-c4ccccc4OC4CC4)CC3)c2)cn1` [Compound I-748, 5-(4-chloro-3-((1-(4-(2-cyclopropoxyphenyl)pyridin-3-yl)cyclopropoxy)methyl)phenethyl)-N-((2S,3R,4R,5R)-2,3,4,5,6-pentahydroxyhexyl)picolinamide] and `Cc1cc(COC2(c3cnccc3-c3ccccc3OC3CC3)CC2)c(Cl)cc1CCCCN(C)C(=O)[C@@H](O)[C@@H](O)[C@H](O)[C@@H](O)CO` [Compound I-132, (2S,3S,4R,5S)-N-{4-[5-chloro-4-({1-[4-(2-cyclopropoxyphenyl)pyridin-3-yl]cyclopropoxy}methyl)-2-methylphenyl]butyl}-2,3,4,5,6-pentahydroxy-N-methylhexanamide] cannot be ordered by EC50: under 100 nM for the first, under 100 nM for the second.

Compared with `CN(C[C@H](O)[C@@H](O)[C@H](O)[C@H](O)CO)C(=O)NC1CCN(C(=O)CCCCc2cc(Cl)c(COC3(c4cnccc4-c4ccccc4OC4CC4)CC3)cc2Cl)CC1` (stereo in doubt) [Compound I-159, 1-(1-{5-[2,5-dichloro-4-({1-[4-(2-cyclopropoxyphenyl)pyridin-3-yl]cyclopropoxy}methyl)phenyl]pentanoyl}piperidin-4-yl)-3-methyl-3-[(2S,3R,4R,5R)-2,3,4,5,6-pentahydroxyhexyl]urea], `Cc1cnc(SCCCC(=O)NC[C@H](O)[C@@H](O)[C@H](O)[C@H](O)CO)nc1CNC1(c2cnccc2-c2ccccc2OC2CC2)CC1` [Compound I-655, 4-({4-[({1-[4-(2-cyclopropoxyphenyl)pyridin-3-yl]cyclopropyl}amino)methyl]-5-methylpyrimidin-2-yl}sulfanyl)-N-[(2S,3R,4R,5R)-2,3,4,5,6-pentahydroxyhexyl]butanamide] is higher in EC50: under 100 nM for the first, 12600 to 50100 nM for the second.
